Assay [1] concerns the target T1, Muscarinic acetylcholine receptor M1 (Homo sapiens, UniProt P11229).
T1 sequence (P11229 whole entry): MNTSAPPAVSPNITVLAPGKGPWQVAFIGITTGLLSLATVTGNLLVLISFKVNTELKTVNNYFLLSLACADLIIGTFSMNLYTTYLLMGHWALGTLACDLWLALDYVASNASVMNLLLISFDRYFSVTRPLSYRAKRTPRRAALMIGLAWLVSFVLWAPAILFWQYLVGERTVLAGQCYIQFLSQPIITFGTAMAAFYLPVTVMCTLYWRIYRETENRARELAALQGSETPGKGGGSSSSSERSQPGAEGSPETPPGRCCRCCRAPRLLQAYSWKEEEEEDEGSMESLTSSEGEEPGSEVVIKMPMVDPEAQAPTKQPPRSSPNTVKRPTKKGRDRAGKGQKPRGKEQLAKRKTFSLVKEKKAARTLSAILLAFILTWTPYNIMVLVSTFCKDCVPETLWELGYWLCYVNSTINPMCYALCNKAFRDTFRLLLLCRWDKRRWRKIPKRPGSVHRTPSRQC
Put plainly: ChEBML_1712853. From the text:
Positive allosteric modulation of human muscarinic acetylcholine M1 receptor expressed in CHO-NFAT cells assessed as potentiation of acetylcholine-induced calcium mobilization after 4 hrs by CCF4-AM dye-based assay

The target of assay [2] is T1, Muscarinic acetylcholine receptor M1. Put plainly: Positive allosteric modulation of human muscarinic acetylcholine M1 receptor expressed in CHO cells assessed as potentiation of acetylcholine-induced calcium mobilization.

As a reminder, the EC50 is the midpoint of the concentration-response curve. Take `O=C(N[C@H]1CCCC[C@@H]1O)C1CN(Cc2ccc(-n3cccn3)cc2)c2ccccc2O1` (some centres not stated): the EC50 in assay [1] is 794 nM. On to `Cn1cc(-c2ccc(CN3CC(C(=O)N[C@H]4CCCC[C@@H]4O)Oc4ccccc43)cn2)cn1` (some centres not stated), for which the EC50 in assay [2] is 178 nM.

(Values after BindingDB's records for doi:10.1016/j.bmcl.2018.05.009 (Vanderbilt University Medical Center, 2018).)
